Data as given in PubChem BioAssay AID248 (DTP/NCI, 2004).
“And” between values parts separate entries of the source, which are not always exact repeats. Equal values may be shown once. Inconclusive results and toxic doses are left out. Rule as the data show it: active = T/C of 150% or more; inactive = T/C below 125%.

Tested on: L1210 leukemia ip in BDF1 mice, survival T/C
Test: NCI In Vivo Anticancer Drug Screen. Data for tumor model L1210 Leukemia (intraperitoneal) in B6D2F1 (BDF1) mice
Settings: endpoint: mean survival time, higher = longer survival
Outline: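 Transplantable tumor model; survival measured in treated vs vehicle control mice. Value = treated/control.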

[1] = dose: 100.0 mg/kg/injection, schedule: Q04DX003 (ip), vehicle: saline
[2] = dose: 200.0 mg/kg/injection, schedule: Q01DX009 (ip), vehicle: other
[3] = dose: 200.0 mg/kg/injection, schedule: Q04DX003 (ip), vehicle: saline
[4] = dose: 400.0 mg/kg/injection, schedule: Q01DX009 (ip), vehicle: other
[5] = dose: 400.0 mg/kg/injection, schedule: Q04DX003 (ip), vehicle: saline

Measured: T/C

NC(=O)CC(N)C(=O)O (stereo not given)
inactive: dose: 100.0 mg/kg/injection, schedule: Q01DX001 (ip), vehicle: saline 96 % of control | [1] 98 % of control | dose: 200.0 mg/kg/injection, schedule: Q01DX001 (ip), vehicle: other 107 % of control | dose: 200.0 mg/kg/injection, schedule: Q01DX001 (ip), vehicle: saline 97 % of control and 104 % of control | [2] 102 % of control | dose: 200.0 mg/kg/injection, schedule: Q01DX009 (ip), vehicle: saline with Tween-80 98 % of control | dose: 200.0 mg/kg/injection, schedule: Q01DX009 (ip), vehicle: saline 97 % of control | dose: 200.0 mg/kg/injection, schedule: Q04DX003 (ip), vehicle: other 102 % of control | [3] 106 % of control and 108 % of control | dose: 400.0 mg/kg/injection, schedule: Q01DX001 (ip), vehicle: other 107 % of control | dose: 400.0 mg/kg/injection, schedule: Q01DX001 (ip), vehicle: saline 98 % of control | [4] 94 % of control | dose: 400.0 mg/kg/injection, schedule: Q01DX009 (ip), vehicle: saline with Tween-80 96 % of control | dose: 400.0 mg/kg/injection, schedule: Q01DX009 (ip), vehicle: saline 103 % of control | dose: 400.0 mg/kg/injection, schedule: Q04DX003 (ip), vehicle: other 96 % of control | [5] 106 % of control and 102 % of control | dose: 800.0 mg/kg/injection, schedule: Q01DX001 (ip), vehicle: other 105 % of control | dose: 800.0 mg/kg/injection, schedule: Q01DX001 (ip), vehicle: saline 106 % of control | dose: 800.0 mg/kg/injection, schedule: Q01DX009 (ip), vehicle: other 100 % of control | dose: 800.0 mg/kg/injection, schedule: Q01DX009 (ip), vehicle: saline with Tween-80 101 % of control | dose: 800.0 mg/kg/injection, schedule: Q01DX009 (ip), vehicle: saline 100 % of control | dose: 800.0 mg/kg/injection, schedule: Q04DX003 (ip), vehicle: other 103 % of control | dose: 800.0 mg/kg/injection, schedule: Q04DX003 (ip), vehicle: saline 101 % of control | dose: 1600.0 mg/kg/injection, schedule: Q01DX001 (ip), vehicle: other 112 % of control | dose: 1600.0 mg/kg/injection, schedule: Q01DX001 (ip), vehicle: saline 101 % of control | dose: 1600.0 mg/kg/injection, schedule: Q01DX009 (ip), vehicle: other 103 % of control | dose: 1600.0 mg/kg/injection, schedule: Q01DX009 (ip), vehicle: saline with Tween-80 98 % of control | dose: 1600.0 mg/kg/injection, schedule: Q01DX009 (ip), vehicle: saline 99 % of control | dose: 1600.0 mg/kg/injection, schedule: Q04DX003 (ip), vehicle: other 96 % of control | dose: 1600.0 mg/kg/injection, schedule: Q04DX003 (ip), vehicle: saline 100 % of control

CCOc1ccccc1NC(c1ccc(OC)cc1)P(=O)(c1ccccc1)c1ccccc1 (stereo not given)
inactive: dose: 100.0 mg/kg/injection, schedule: Q04DX003 (ip), vehicle: Klucel (hydroxypropylcellulose) (HPC) 101 % of control | dose: 200.0 mg/kg/injection, schedule: Q04DX003 (ip), vehicle: Klucel (hydroxypropylcellulose) (HPC) 101 % of control | dose: 400.0 mg/kg/injection, schedule: Q04DX003 (ip), vehicle: Klucel (hydroxypropylcellulose) (HPC) 92 % of control

CN(CCO)CC1C(c2ccccc2)C1c1ccccc1 (stereo not given)
inactive: dose: 12.5 mg/kg/injection, schedule: Q04DX002 (ip), vehicle: Klucel (hydroxypropylcellulose) (HPC) 97 % of control | dose: 25.0 mg/kg/injection, schedule: Q04DX002 (ip), vehicle: Klucel (hydroxypropylcellulose) (HPC) 94 % of control | dose: 50.0 mg/kg/injection, schedule: Q04DX002 (ip), vehicle: Klucel (hydroxypropylcellulose) (HPC) 90 % of control

CCNC(=S)OC1CCC2(C)C(=CCC3C2CCC2(C)C(C(C)CCC(CC)C(C)C)CCC32)C1 (stereo not given)
inactive: dose: 100.0 mg/kg/injection, schedule: Q04DX002 (ip), vehicle: saline with Tween-80 87 % of control | dose: 200.0 mg/kg/injection, schedule: Q04DX002 (ip), vehicle: saline with Tween-80 87 % of control | dose: 400.0 mg/kg/injection, schedule: Q04DX002 (ip), vehicle: saline with Tween-80 94 % of control

COC(=O)c1c(OC)cc(OC)cc1OC
inactive: dose: 100.0 mg/kg/injection, schedule: Q01DX009 (ip), vehicle: other 96 % of control | [1] 100 % of control | [2] 96 % of control | [3] 97 % of control | [4] 94 % of control | [5] 95 % of control
